According to patent US10201583B2, “Antioxidant dietary supplement and related method” (priority 2012, dated 2019):

Assays:
[1] = tested on: HMOX-1 in bovine aortic endothelial cells; conditions: Motterlini et al. 2000; cited from earlier work
[2] = tested on: Antioxidant Response Element (ARE); experiment: ARE luciferase reporter assay in stably transfected HepG2 cells; type: cell-based, human; conditions: individual ingredient at the noted concentration, 48 h, control sulforaphane 10 μM
Experimental: The formulation including the blend of turmeric, quercetin and rosemary (TQR Blend, also referred to herein as Blend A) was tested to evaluate the ARE of the blend. In particular, the three individual ingredients, turmeric, quercetin and rosemary were tested by themselves and in combination as a blend. In the testing, a conventional assay for determining ARE was utilized. Generally, the assay included the human hepatocyte cell line HepG2 obtained from ATCC of Manassas, Va. that was stably transfected with a vector. The vector contained four repeats of the ARE DNA sequence ([…] ID NO: 1)) upstream of a minimal promoter using the firefly luciferase gene as a reporter. These cells were then treated with the individual ingredients turmeric, quercetin and rosemary, and the TQR Blend in varying concentrations for 48 hours in this and the other noted examples below. The human hepatocytes were lysed, the luciferase substrate, purchased from Biotium of Hayward, Calif., added, and the relative luminescence values were obtained for all samples. The results are shown as a % Response vs. Control. The control substance was sulforaphane at 10 μM.

SMILES	induction of HMOX-1 in endothelial cells [1]	% Response vs. Control in ARE assay ([2]; TQR Blend 50 μg/ml at 1:3:5)	% Response vs. Control in ARE assay ([2]; TQR Blend 60 μg/ml at 1:3:5)	% Response vs. Control in ARE assay ([2]; TQR Blend 70 μg/ml at 1:3:5)	% Response vs. Control in ARE assay ([2]; TQR Blend 80 μg/ml at 1:3:5)
COc1cc(/C=C/C(=O)CC(=O)/C=C/c2ccc(O)c(OC)c2)ccc1O [curcumin]	potent inducer of HMOX-1				
O=c1c(O)c(-c2ccc(O)c(O)c2)oc2cc(O)cc(O)c12 [quercetin]		about 50%	about 75%	about 80%	about 90%
